We go through twelve compounds from patent US20260092071A1, “COMPOUNDS AND COMPOSITIONS AS SMARCA2/4 DEGRADERS AND USES THEREOF” (REGENTS OF THE UNIVERSITY OF MICHIGAN, priority 2022, published 2026).

Assay [1] has as its target SMARCA4 (Homo sapiens, UniProt P51532). Nature of the assay: HiBit assay in engineered HT1080 CRISPR knock-in cell, 6 hrs (B series), SMARCA4. It counts as cell-based. Conditions: 6 hrs incubation; for DC50 / SMARC A4 HT1080 HiBit Dmax(%): HT1080 CRISPR knock-in cells; for DC50: read-out: SMARC A4 HT1080 HiBit DC50; for Dmax: HT-1080, HT1080 CRISPR knock-in cells, read-out: SMARC A4 HT1080 HiBit Dmax(%). In outline: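 Protein abundance is measured in HiBiT-tagged HT1080 CRISPR knock-in cells after a 6 hr compound treatment (0.1% DMSO) by lytic Nano-Glo HiBiT luminescence.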

Assay [2] concerns the target SMARCA2 (Homo sapiens, UniProt P51531). Nature of the assay: HiBit assay in engineered HT1080 CRISPR knock-in cell, 6 hrs (B series), SMARCA2. The note with it: 6 hrs incubation; for DC50 / SMARC A2 HT1080 HiBit Dmax (%): HT1080 CRISPR knock-in cells; for DC50: read-out: SMARC A2 HT1080 HiBit DC50; for Dmax: HT-1080, HT1080 CRISPR knock-in cells, read-out: SMARC A2 HT1080 HiBit Dmax (%). Format: cell-based. The essentials:
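HT1080 CRISPR knock-in cells carrying the HiBiT tag were seeded onto compounds (final DMSO 0.1%) and incubated 6 hrs at 37° C, 5% CO2. Remaining tagged protein was detected by lytic HiBiT luminescence after adding LgBiT protein and substrate, with LgBiT-free wells serving as negative control.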

Each structure is given as a SMILES string.

SMARCA2, sequence (P51531 whole entry): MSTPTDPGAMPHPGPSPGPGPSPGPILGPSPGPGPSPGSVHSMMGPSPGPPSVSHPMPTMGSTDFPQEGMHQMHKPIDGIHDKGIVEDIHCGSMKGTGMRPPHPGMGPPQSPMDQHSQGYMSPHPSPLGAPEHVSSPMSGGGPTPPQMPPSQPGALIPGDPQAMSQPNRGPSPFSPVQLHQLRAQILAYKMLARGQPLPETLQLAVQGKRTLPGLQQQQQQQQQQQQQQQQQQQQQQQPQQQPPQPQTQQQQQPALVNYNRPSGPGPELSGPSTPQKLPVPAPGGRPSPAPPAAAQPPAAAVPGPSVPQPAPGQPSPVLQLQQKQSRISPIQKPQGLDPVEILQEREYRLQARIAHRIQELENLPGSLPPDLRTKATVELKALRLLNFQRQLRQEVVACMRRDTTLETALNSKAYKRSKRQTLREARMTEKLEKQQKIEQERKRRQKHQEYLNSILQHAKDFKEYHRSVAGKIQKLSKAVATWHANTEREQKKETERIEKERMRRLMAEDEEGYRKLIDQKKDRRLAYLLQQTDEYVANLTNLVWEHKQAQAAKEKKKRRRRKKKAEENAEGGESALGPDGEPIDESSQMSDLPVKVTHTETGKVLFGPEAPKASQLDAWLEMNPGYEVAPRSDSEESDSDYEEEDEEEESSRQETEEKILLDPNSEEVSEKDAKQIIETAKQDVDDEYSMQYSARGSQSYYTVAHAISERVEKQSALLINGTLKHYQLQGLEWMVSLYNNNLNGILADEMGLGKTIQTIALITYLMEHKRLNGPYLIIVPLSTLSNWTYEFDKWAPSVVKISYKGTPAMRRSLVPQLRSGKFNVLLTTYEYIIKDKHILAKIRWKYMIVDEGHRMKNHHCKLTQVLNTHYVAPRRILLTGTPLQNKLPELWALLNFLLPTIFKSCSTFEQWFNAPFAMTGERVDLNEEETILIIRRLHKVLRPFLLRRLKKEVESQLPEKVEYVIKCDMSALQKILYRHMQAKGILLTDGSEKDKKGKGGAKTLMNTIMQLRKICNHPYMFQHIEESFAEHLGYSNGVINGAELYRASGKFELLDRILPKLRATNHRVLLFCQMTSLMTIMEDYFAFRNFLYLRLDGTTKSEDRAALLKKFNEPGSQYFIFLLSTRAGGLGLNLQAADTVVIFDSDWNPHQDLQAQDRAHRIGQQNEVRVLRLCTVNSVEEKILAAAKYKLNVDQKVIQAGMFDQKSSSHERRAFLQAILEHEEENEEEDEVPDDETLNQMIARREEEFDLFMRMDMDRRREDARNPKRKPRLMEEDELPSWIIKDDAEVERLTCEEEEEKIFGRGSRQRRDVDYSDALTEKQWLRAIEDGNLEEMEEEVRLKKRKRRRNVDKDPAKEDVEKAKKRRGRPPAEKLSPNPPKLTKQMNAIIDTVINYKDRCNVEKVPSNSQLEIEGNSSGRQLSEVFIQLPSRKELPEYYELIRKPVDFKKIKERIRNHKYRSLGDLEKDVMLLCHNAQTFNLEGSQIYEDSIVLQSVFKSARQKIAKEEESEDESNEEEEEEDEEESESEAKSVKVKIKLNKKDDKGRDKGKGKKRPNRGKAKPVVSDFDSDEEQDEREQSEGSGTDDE
SMARCA4, sequence (P51532 whole entry): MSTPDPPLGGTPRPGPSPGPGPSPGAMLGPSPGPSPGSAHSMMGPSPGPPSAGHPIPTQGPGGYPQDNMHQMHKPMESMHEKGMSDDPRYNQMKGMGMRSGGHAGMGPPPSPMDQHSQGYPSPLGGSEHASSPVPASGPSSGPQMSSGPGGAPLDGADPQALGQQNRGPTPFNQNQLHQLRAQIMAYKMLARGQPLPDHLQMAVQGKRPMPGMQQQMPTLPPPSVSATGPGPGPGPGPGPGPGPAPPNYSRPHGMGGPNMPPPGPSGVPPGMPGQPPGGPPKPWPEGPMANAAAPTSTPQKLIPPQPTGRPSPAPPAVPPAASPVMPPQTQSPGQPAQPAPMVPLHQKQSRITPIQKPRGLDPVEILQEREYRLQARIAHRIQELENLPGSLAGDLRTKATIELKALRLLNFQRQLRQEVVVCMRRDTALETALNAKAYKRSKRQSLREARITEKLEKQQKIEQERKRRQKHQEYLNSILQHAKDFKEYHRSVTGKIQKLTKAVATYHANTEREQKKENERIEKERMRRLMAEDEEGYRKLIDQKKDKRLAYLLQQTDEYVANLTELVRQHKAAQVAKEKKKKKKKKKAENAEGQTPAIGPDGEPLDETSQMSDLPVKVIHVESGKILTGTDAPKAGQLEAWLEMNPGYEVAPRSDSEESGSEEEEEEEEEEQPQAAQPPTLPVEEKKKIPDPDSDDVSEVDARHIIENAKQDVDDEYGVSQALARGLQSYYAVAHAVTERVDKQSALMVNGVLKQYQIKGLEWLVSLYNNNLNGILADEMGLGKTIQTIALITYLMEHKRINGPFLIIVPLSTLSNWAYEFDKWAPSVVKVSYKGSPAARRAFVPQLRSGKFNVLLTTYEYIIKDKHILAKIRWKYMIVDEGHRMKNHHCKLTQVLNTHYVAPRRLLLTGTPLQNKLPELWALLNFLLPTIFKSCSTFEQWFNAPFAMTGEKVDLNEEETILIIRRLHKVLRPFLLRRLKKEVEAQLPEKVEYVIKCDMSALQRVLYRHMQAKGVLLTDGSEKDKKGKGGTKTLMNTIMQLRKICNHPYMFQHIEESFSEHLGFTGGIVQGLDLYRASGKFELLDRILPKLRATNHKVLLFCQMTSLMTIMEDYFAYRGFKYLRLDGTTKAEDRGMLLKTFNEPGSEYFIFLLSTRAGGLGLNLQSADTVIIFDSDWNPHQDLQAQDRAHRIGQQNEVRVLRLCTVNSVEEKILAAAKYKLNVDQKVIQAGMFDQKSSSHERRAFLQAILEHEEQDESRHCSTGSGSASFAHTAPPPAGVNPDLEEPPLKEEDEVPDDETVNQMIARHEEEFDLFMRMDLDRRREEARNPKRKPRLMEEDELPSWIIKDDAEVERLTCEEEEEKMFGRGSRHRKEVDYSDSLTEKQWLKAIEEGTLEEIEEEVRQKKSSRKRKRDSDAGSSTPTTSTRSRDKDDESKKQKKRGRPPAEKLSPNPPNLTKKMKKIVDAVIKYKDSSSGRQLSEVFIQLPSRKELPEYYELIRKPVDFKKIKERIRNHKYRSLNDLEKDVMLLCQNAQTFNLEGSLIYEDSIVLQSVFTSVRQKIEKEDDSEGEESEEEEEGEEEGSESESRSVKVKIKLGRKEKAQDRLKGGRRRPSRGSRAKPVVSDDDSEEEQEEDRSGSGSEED

Consider `CC(C)[C@@H](C(=O)N1C[C@H](O)C[C@H]1C(=O)N[C@@H](C)c1ccc(-c2scnc2C#CCN2CCOCC2)cc1)n1cc([C@H]2CC[C@H](CN3CCN(c4ccc5c(c4)-n4c(nc(=O)c6c(Cl)cccc64)C5(C)C)CC3)CC2)nn1` [Compound B136, (2S,4R)-1-((S)-2-(4-((1r,4S)-4-((4-(4-chloro-7,7-dimethyl-5-oxo-5,7-dihydroindolo[1,2-a]quinazolin-10-yl)piperazin-1-yl)methyl)cyclohexyl)-1H-1,2,3-triazol-1-yl)-3-methylbutanoyl)-4-hydroxy-N-((S)-1-(4-(4-(3-morpholinoprop-1-yn-1-yl)thiazol-5-yl)phenyl)ethyl)pyrrolidine-2-carboxamide], for which, in assay [1], the DC50 is < 100 nM and the Dmax fell in the range of 70 to 90%. Also, in assay [2], the DC50 is < 100 nM and the Dmax is > 90%.

Take `Cc1ncsc1-c1ccc([C@H](C)NC(=O)[C@@H]2C[C@@H](O)CN2C(=O)[C@@H](NC(=O)[C@H]2CC[C@H](CN3CCC(c4ccc5c(c4)-n4c(nc(=O)c6c(Br)cccc64)C5(C)C)CC3)CC2)C(C)(C)C)cc1` [Compound B70, (2S,4R)-1-((S)-2-((11,4S)-4-((4-(4-bromo-7,7-dimethyl-5-oxo-5,7-dihydroindolo[1,2-a]quinazolin-10-yl)piperidin-1-yl)methyl)cyclohexane-1-carboxamido)-3,3-dimethylbutanoyl)-4-hydroxy-N-((S)-1-(4-(4-methylthiazol-5-yl)phenyl)ethyl)pyrrolidine-2-carboxamide]: in assay [1], the DC50 was < 100 nM and the Dmax is < 50%. In assay [2], the DC50 is < 100 nM and the Dmax was > 90%.

For the compound `CC(C)C(C(=O)N1C[C@H](O)C[C@H]1C(=O)N[C@@H](C)c1ccc(-c2ncnn2C)cc1)c1cc(OCCN2CCC(c3ccc4c(c3)C(C)(C)c3nc(=O)c5c(Cl)cccc5n3-4)CC2)no1` (stereo partly drawn) [Compound B74, (2S,4R)-1-(2-(3-(2-(4-(4-chloro-7,7-dimethyl-5-oxo-5,7-dihydroindolo[1,2-a]quinazolin-9-yl)piperidin-1-yl)ethoxy)isoxazol-5-yl)-3-methylbutanoyl)-4-hydroxy-N-((S)-1-(4-(1-methyl-1H-1,2,4-triazol-5-yl)phenyl)ethyl)pyrrolidine-2-carboxamide], in assay [1], the DC50 is > 1000 nM and the Dmax is < 50%. Also, in assay [2], the DC50 lay within 100 to 500 nM and the Dmax is < 50%.

`Cc1cc(C(C(=O)N2C[C@H](O)C[C@H]2C(=O)N[C@@H](CCN2CCC(c3cccc4c3C(C)(C)c3nc(=O)c5c(Cl)cccc5n3-4)CC2)c2ccc(-c3scnc3C)cc2)C(C)C)on1` (stereo partly drawn) [Compound B165, (2S,4R)-N-((S)-3-(4-(4-chloro-7,7-dimethyl-5-oxo-5,7-dihydroindolo[1,2-a]quinazolin-8-yl)piperidin-1-yl)-1-(4-(4-methylthiazol-5-yl)phenyl)propyl)-4-hydroxy-1-(3-methyl-2-(3-methylisoxazol-5-yl)butanoyl)pyrrolidine-2-carboxamide]: in assay [1], the “SMARC A4 HT1080 HiBit Dmax(%)” value is “C (C (50-69% degradation))” and the DC50 was 100 to 500 nM. Also, in assay [2], the “SMARC A2 HT1080 HiBit Dmax (%)” value is reported as “C (C (50-69% degradation))” and the DC50 was in the range of 100 to 500 nM.

As to `Cc1cc(C(C(=O)N2C[C@H](O)C[C@H]2C(=O)N[C@@H](C)c2ccc(-c3scnc3C#CCN3CCC(c4ccc5c(c4)C(C)(C)c4nc(=O)c6c(Cl)cccc6n4-5)CC3)cc2)C(C)C)on1` (stereo partly drawn) [Compound B144, (2S,4R)—N—((S)-1-(4-(4-(3-(4-(4-chloro-7,7-dimethyl-5-oxo-5,7-dihydroindolo[1,2-a]quinazolin-9-yl)piperidin-1-yl)prop-1-yn-1-yl)thiazol-5-yl)phenyl)ethyl)-4-hydroxy-1-(3-methyl-2-(3-methylisoxazol-5-yl)butanoyl)pyrrolidine-2-carboxamide], in assay [1], the DC50 is < 100 nM and the Dmax lay in the range of 50 to 69%. In addition, in assay [2], the DC50 was in the range of 100 to 500 nM and the Dmax lay in the range of 50 to 69%.

`Cc1ncsc1-c1ccc([C@H](C)NC(=O)[C@@H]2C[C@@H](O)CN2C(=O)[C@H](C(C)C)n2cc(OCCN3CCC(c4ccc5c(c4)C(C)(C)c4nc(=O)c6c(Cl)cccc6n4-5)CC3)cn2)cc1` [Compound B57, (2S,4R)-1-(2-(4-(2-(4-(4-chloro-7,7-dimethyl-5-oxo-5,7-dihydroindolo[1,2-a]quinazolin-9-yl)piperidin-1-yl)ethoxy)-1H-pyrazol-1-yl)-3-methylbutanoyl)-4-hydroxy-N—((S)-1-(4-(4-methylthiazol-5-yl)phenyl)ethyl)pyrrolidine-2-carboxamide]: the DC50 was in the range of 501 to 1000 nM in assay [1] and 100 to 500 nM in assay [2]. The Dmax is < 50% in assay [1] and 70 to 90% in assay [2].

As to `CC(C)C(C(=O)N1C[C@H](O)C[C@H]1C(=O)N[C@@H](C)c1ccc(-c2ncnn2C)cc1)c1cc(OCCN2CCC(c3ccc4c(c3)C(C)(C)c3nc(=O)c5c(Cl)cccc5n3-4)CC2)no1` (stereo partly drawn) [Compound B75, (2S,4R)-1-(2-(3-(2-(4-(4-chloro-7,7-dimethyl-5-oxo-5,7-dihydroindolo[1,2-a]quinazolin-9-yl)piperidin-1-yl)ethoxy)isoxazol-5-yl)-3-methylbutanoyl)-4-hydroxy-N-((S)-1-(4-(1-methyl-1H-1,2,4-triazol-5-yl)phenyl)ethyl)pyrrolidine-2-carboxamide], in assay [1], the “SMARC A4 HT1080 HiBit Dmax(%)” value is on record as “D (D (<50% degradation))” and the DC50 fell in the range of 100 to 500 nM. In assay [2], the “SMARC A2 HT1080 HiBit Dmax (%)” value is recorded as “B (B (70-90% degradation))” and the DC50 was 100 to 500 nM.

Take `C[C@H](NC(=O)[C@@H]1C[C@@H](O)CN1C(=O)[C@@H](n1cc([C@H]2CC[C@H](CN3CCC(c4ccc5c(c4)-n4c(nc(=O)c6c(Cl)cccc64)C5(C)C)CC3)CC2)nn1)C(C)(C)C)c1ccc(-c2scnc2Cl)cc1` [Compound B117, (2S,4R)-1-((S)-2-(4-((1r,4S)-4-((4-(4-chloro-7,7-dimethyl-5-oxo-5,7-dihydroindolo[1,2-a]quinazolin-10-yl)piperidin-1-yl)methyl)cyclohexyl)-1H-1,2,3-triazol-1-yl)-3,3-dimethylbutanoyl)-N-((S)-1-(4-(4-chlorothiazol-5-yl)phenyl)ethyl)-4-hydroxypyrrolidine-2-carboxamide]: in assay [1], the DC50 lay in the range of 100 to 500 nM and the Dmax was in the range of 50 to 69%. Moreover, in assay [2], the DC50 was < 100 nM and the Dmax is > 90%.

In the case of `Cc1ncsc1-c1ccc([C@H](CCCCCn2cc(-c3ccc4c(c3)C(C)(C)c3nc(=O)c5c(Cl)cccc5n3-4)cn2)NC(=O)[C@@H]2C[C@@H](O)CN2C(=O)[C@@H](NC(=O)C2(F)CC2)C(C)(C)C)cc1` [Compound B56, (2S,4R)—N—((S)-6-(4-(4-chloro-7,7-dimethyl-5-oxo-5,7-dihydroindolo[1,2-a]quinazolin-9-yl)-1H-pyrazol-1-yl)-1-(4-(4-methylthiazol-5-yl)phenyl)hexyl)-1-((S)-2-(1-fluorocyclopropane-1-carboxamido)-3,3-dimethylbutanoyl)-4-hydroxypyrrolidine-2-carboxamide], the DC50 in assay [1] is > 1000 nM; in assay [2] it was 100 to 500 nM. In addition, the Dmax in assay [1] and in assay [2] was < 50% in each case.

As for `Cc1ncsc1-c1ccc([C@H](C)NC(=O)[C@@H]2C[C@@H](O)CN2C(=O)[C@H](C(C)C)n2cc(CCCCCN3CCC(c4ccc5c(c4)-n4c(nc(=O)c6c(Cl)cccc64)C5(C)C)CC3)nn2)cc1` [Compound B61, (2S,4R)-1-((S)-2-(4-(5-(4-(4-chloro-7,7-dimethyl-5-oxo-5,7-dihydroindolo[1,2-a]quinazolin-10-yl)piperidin-1-yl)pentyl)-1H-1,2,3-triazol-1-yl)-3-methylbutanoyl)-4-hydroxy-N-((S)-1-(4-(4-methylthiazol-5-yl)phenyl)ethyl)pyrrolidine-2-carboxamide], in assay [1], the DC50 is < 100 nM and the Dmax fell in the range of 70 to 90%. Besides, in assay [2], the DC50 is < 100 nM and the Dmax was > 90%.

Turning to `Cc1ncsc1-c1ccc(CNC(=O)[C@@H]2C[C@@H](O)CN2C(=O)[C@@H](NC(=O)C2(F)CC2)C(C)(C)C)c(OCC2CCC(N3CCC(c4ccc5c(c4)-n4c(nc(=O)c6c(Cl)cccc64)C5(C)C)CC3)CC2)c1` (stereo partly drawn) [Compound B80, (2S,4R)-N-(2-((4-(4-(4-chloro-7,7-dimethyl-5-oxo-5,7-dihydroindolo[1,2-a]quinazolin-10-yl)piperidin-1-yl)cyclohexyl)methoxy)-4-(4-methylthiazol-5-yl)benzyl)-1-((S)-2-(1-fluorocyclopropane-1-carboxamido)-3,3-dimethylbutanoyl)-4-hydroxypyrrolidine-2-carboxamide], the DC50 in assay [1] and in assay [2] was < 100 nM throughout. Also, the Dmax in assay [1] and in assay [2] was > 90% throughout.

Consider `Cc1ncsc1-c1ccc([C@H](C)NC(=O)[C@@H]2C[C@@H](O)CN2C(=O)[C@@H](NC(=O)CCn2cc(-c3ccc4c(c3)-n3c(nc(=O)c5c(Cl)cccc53)C4(C)C)cn2)C(C)(C)C)cc1` [Compound B92, (2S,4R)-1-((S)-2-(3-(4-(4-chloro-7,7-dimethyl-5-oxo-5,7-dihydroindolo[1,2-a]quinazolin-10-yl)-1H-pyrazol-1-yl)propanamido)-3,3-dimethylbutanoyl)-4-hydroxy-N-((S)-1-(4-(4-methylthiazol-5-yl)phenyl)ethyl)pyrrolidine-2-carboxamide], for which, in assay [1], the DC50 was > 1000 nM and the Dmax was < 50%. Besides, in assay [2], the DC50 was > 1000 nM and the Dmax was < 50%.
